Measured values reported in patent publication US11019823B2, “Method of controlling water surface inhabiting pests” (SHA'KED MICROBIAL SOLUTIONS LTD., priority 2013, dated 2021).

What was measured:
[1] = tested on: non-motile eggs of the insects; experiment: Concentrated hypochlorite on insect egg hatching; assay type: in vivo; details: 250-500 ppm of concentrated hypochlorite
Source text: In certain aspects the methods of the present invention target the non-motile eggs of the insects. 250-500 ppm of concentrated hypochlorite caused 95% of egg populations not to hatch.

[2] = Dissolution study: release of free available chlorine / NaDCC from floating pellets in deionized water (orthotolidine colorimetry, 436 nm); assay type: physicochemical
Experimental: The ability of the pellet to release free available chlorine from the water soluble NaDCC was measured over time using a colorimeric method. Three pellets were selected at random from the kilogram batch that was created. The dimensions and mass of each pellet was recorded and the pellets were added to an 800 ml high density polyethylene (HDPE) beaker filled with deionized water and covered with aluminum foil. NaDCC (0.1975 g) was added to a separate 800 ml plastic beaker as a control. 0.8 ml aliquots of each solution were pipetted into 50 ml volumetic flasks and brought to volume with deionized water. 10 ml aliquots of these diluted solutions were mixed with 100 μl of 0.1% orthotolidine in a vial, forming a clear, yellow solution. The solution was loaded into a cuvette and was analyzed using a Shimadzu UV160U UV-Vis Spectrophotometer at 436 nm.
Initial sample pulls occurred 15 minutes after the pellets and control sample were added to the water. Additional pulls were taken at about 2, 9, 11, 13, 15, 17, 24, and 36 hours.
Upon exposure to water, NaDCC breaks down to release free available chlorine that acts as an algae growth inhibitor. Orthotolidine reacts with the chlorine causing a color change allowing for colorimetic analysis to chart the dissolution of the NaDCC. The concentration of NaDCC released at each time point was calculated by constructing a calibration curve relating the free available chlorine response to the initial concentration of NaDCC. The initial concentration of NaDCC calculation is shown in Equation 1. The original aliquot of the control taken at the 15 minute mark was used to create standards ranging from 25-250 ppm. Concentration of initial NaDCC=initial mass of NaDCC/volume of deionized water Equation 1: 197.5 mg/0.800 L=246.9 ppm

[3] = tested on: cyanobacterium Oscillatoria sp.; details: 1.2 g NaDCC per enclosure (Example 6)
[4] = tested on: toxic cyanobacterium Oscillatoria sp.; details: 1.6 g NaDCC per enclosure of about 270 liter (Example 5)
[5] = tested on: Culex quinquefasciatus eggs; experiment: Mosquito egg bioassay in spot plates, probit analysis; assay type: in vivo
Experimental: Mosquito eggs were obtained from the Center for Disease control in Fort Collins, Colo. The eggs were counted and transferred to spot plates containing 8 ml of NaDCC anhydrous solution at 0, 50, 500, 5000, and 50,000 ppm. Each treatment concentration and control (0 ppm) was replicated 3 times within the same spot plate and transferred to an incubator set for 30° C. and 12 hrs of light and dark alterations for 25 hours. […] Larvae were counted as living, hatched dead, or unhatched dead 25 hrs after the bioassay was initiated. Larvae were only counted as hatched if they were completely free from their egg casing. Data were analyzed by probit analysis with the PROBIT Procedure in SAS (Version 9.2, Cary N.C.), producing an LC95 and natural response rate.

[6] = tested on: Anopheles stevensi eggs; details: 72 hrs, 30° C., probit analysis
Experimental: Data were analyzed by probit analysis with the PROBIT Procedure in SAS (Version 9.2, Cary N.C.).

[7] = tested on: Non-biting midge eggs (Chironomidae: Tanypodinae); details: a week, 30° C., probit analysis
Experimental: Non-biting midge eggs (Chironomidae: Tanypodinae) were obtained from the pond at Town Park, Auburn, Ala. The eggs were counted and transferred to spot plates containing 8 ml of NaDCC anhydrous solution at 0, 50, 500, 5000, and 50,000 ppm. Each treatment and control was replicated 3 times within the same spot plate and transferred to an incubator set for 30° C. and 12 hours of light and dark alterations for a week. Data were analyzed by probit analysis with the PROBIT Procedure in SAS (Version 9.2, Cary N.C.). Larvae were only counted as hatched if they were completely free from their egg casing.

[8] = tested on: A. aegypti eggs; experiment: Mosquito egg bioassay in spot plates, probit analysis; assay type: in vivo, Aedes aegypti
Experimental: A. aegypti eggs were obtained from the Center for Disease control in Fort Collins, Colo. The eggs were counted and transferred to spot plate treatment or control wells, and placed in an incubator. Larvae were counted as living, hatched dead, or unhatched dead 72 hours after the bioassay was initiated. […] The LC95 for A. aegypti was 470 ppm.

OCl [hypochlorite]
egg populations not hatching [1]: 95%

O=c1nc([O-])n(Cl)c(=O)n1Cl.[Na+] [NaDCC, sodium dichloroisocyanurate]
Concentration of NaDCC released ([2]; 0.25 hours): 241.5 ppm | Response ([2]; 0.25 hours, 436 nm, orthotolidine, 800 ml deionized water): 2.053 AU | Concentration of NaDCC released ([2]; 2.17 hours): 228.4 ppm | Response ([2]; 2.17 hours): 1.941 AU | Concentration of NaDCC released ([2]; 9.17 hours): 237.9 ppm | Response ([2]; 9.17 hours): 2.022 AU | Concentration of NaDCC released ([2]; 11.00 hours): 215.4 ppm | Response ([2]; 11.00 hours): 1.831 AU | Concentration of NaDCC released ([2]; 13.42 hours): 238.8 ppm | Response ([2]; 13.42 hours): 2.030 AU | Concentration of NaDCC released ([2]; 15.42 hours): 233.9 ppm | Response ([2]; 15.42 hours): 1.988 AU | Concentration of NaDCC released ([2]; 17.67 hours): 231.5 ppm | Response ([2]; 17.67 hours): 1.968 AU | Concentration of NaDCC released ([2]; 24.00 hours): 217.6 ppm | Response ([2]; 24.00 hours): 1.850 AU | Concentration of NaDCC released ([2]; 36.00 hours): 237.1 ppm | Response ([2]; 36.00 hours): 2.015 AU | effect on cyanobacterial infestation [3]: total elimination of the cyanobacterial infestation | effect on cyanobacterial infestation [4]: total elimination of the cyanobacterial infestation

O=c1nc([O-])n(Cl)c(=O)n1Cl.[Na+] [NaDCC anhydrous, Sodium Dichloroisocyanurate (NaDCC) Anhydrous]
state of egg shells ([5]; 5000 ppm treatment): mostly dissolved | state of egg shells ([5]; 50,000 ppm treatment): dissolved and unperceivable | LC95 ([5]; 25 hrs, 30° C., probit analysis): 93.8 ppm | LC95 [6]: 270 ppm | LC95 [7]: 205.7 ppm | state of egg shells ([8]; 5000 ppm treatment): mostly dissolved | state of egg shells ([8]; 50,000 ppm treatment): dissolved and unperceivable | LC95 ([8]; 72 hours, probit analysis): 470 ppm
